Data from patent publication US9365534B2, “Arylated camphenes, processes for their preparation and uses thereof” (Yissum Research Development Company of the Hebrew …, priority 2009, dated 2016).

How the values were obtained:
[1] = target: human CB2 receptor (Homo sapiens (Human), UniProt P34972); assay: Membrane [35S]GTPγS binding assay; assay type: biochemical
Description: Human CB2 expressing CHO-K1 membranes (5 μg per incubation mixture) were diluted in 50 mM Tris-HCl (pH 7.5) and 0.5 mM EDTA and added to HU compounds in a pre-mixed incubation cocktail. Final incubation concentrations were 55 mM Tris-HCl (pH 7.4), 1 mM EDTA, 100 mM NaCl, 5 mM MgCl2, 0.5% BSA, 50 μM GDP, 0.2 nM [^35S]GTPγS (PerkinElmer) with varied HU compound concentration and 5 μg membrane. Incubations were continued for 60 minutes at 30° C. in a shaking water bath. Assays were terminated by addition of 2 ml ice cold wash buffer (50 mM Tris-HCl, pH 7.5 and 5 mM MgCl2) and filtration through pre-soaked GF/C filters (Whatman), followed by two further washes. adioactivity was determined as described for competition binding assays.
Data was analyzed using the Prism 4.02 programme (GraphPad Software, San Deigo, Calif., USA). IC50 and EC50 values, as determined from sigmoidal curves, were generated from drug concentrations plotted in log scale. […] It is possible to display data as an average, plus or minus the standard error of the mean in log form, however, this is not easily interpreted or compared to other values. It was therefore elected to calculate the 95% confidence interval for the mean value in log form and then convert the lower limit, mean and upper limit into the molar (linear) scale. […] Two-tailed t-tests for statistical analysis between enantiomeric pairs of compounds were performed for CB2 Ki values. The Pearson value, an indication of linearity, was determined for Ki and IC50 or EC50 results obtained for CB2 receptors in binding, cAMP or GTPγS experiments, respectively.

[2] = test system: closed head injury (CHI); assay: Closed head injury (CHI) model, neurological severity score, Sabra mice; assay type: in vivo; conditions: for most effective dose (recovery, ΔNSS): Sabra mice, i.p. 1 h after CHI, followed 21 days
Description: The study was conducted according to the guidelines of the Institutional Animal Care Committee of the Hebrew University. Male Sabra mice weighing 35 to 50 g were used in all experiments. Animals were kept under controlled light conditions with a 12 h/12 h light/dark cycle. Experimental closed head injury (CHI) was induced using a modified weight drop device developed in our laboratory as described previously (Chen et al., 1996). At 1 h after CHI, the functional status of the mice was evaluated according to a set of 10 neurobehavioral tasks, namely the neurological severity score (NSS). This score is based on the ability of the mice to perform 10 different tasks (Beni-Adani et al., 2001) that evaluate their motor ability, balance, and alertness. One point is given for failing to perform a task. […] A score of 10 reflects maximal neurologic impairment, and a decrease of NSS during the recovery period indicates partial recovery of function.
Data was analyzed using the Prism 4.02 programme (GraphPad Software, San Deigo, Calif., USA). The data are expressed as mean±SEM and statistical significance was assessed with one way analysis of variance (ANOVA) followed by a Dunnett's post-hoc analysis for TNF-α levels. Nonparametric NSS values were compared between the two groups at each time point.
In this study four groups of mice were subjected to CHI (n=10/group and control n=9), after which the following agents were administered: • Group 1 (Control): Vehicle only (ethanol:cremophor:saline at ratio of 1:1:18), 1 h after CHI. • Group 2: HU-910, 0.1 mg/kg, dissolved in vehicle (1:1:18 ethanol:cremophor:saline), i.p. 1 h after CHI. • Group 3: HU-910, 1.0 mg/kg, dissolved in vehicle (1:1:18 ethanol:cremophor:saline), i.p. 1 h after CHI. • Group 4: HU-910, 10.0 mg/kg, dissolved in vehicle (1:1:18 ethanol:cremophor:saline), i.p. 1 h after CHI.
In this study four groups of mice were subjected to CHI (n=9/group), after which the following agents were administered: • Group 1 (Control): Vehicle only (ethanol:cremophor:saline at ratio of 1:1:18), 1 h after CHI. • Group 2: HU-910, 10 mg/kg, dissolved in vehicle (1:1:18 ethanol:cremophor:saline), i.p. 1 h after CHI. • Group 3: Specific CB2 antagonist SR144528 (N-[(1S)-endo-1,3,3-trimethylbicyclo[2.2.1]heptan-2-yl]-5-(4-chloro-3-methylphenyl)-1-(4-methylbenzyl)pyrazole-3 carboxamide), (see M. Rinaldi-Carmona, et al. J. Pharmacol. Exp. Ther. 284 (1998) 644-650), 1 mg/kg, i.p. 1 h after CHI. • Group 4: Specific CB2 antagonist (SR144528, N-[(1S)-endo-1,3,3-trimethylbicyclo[2.2.1]heptan-2-yl]-5-(4-chloro-3-methylphenyl)-1-(4-methylbenzy)pyrazole-3 carboxamide), 1 mg/kg, i.p. 1 h after CHI and HU-910 10 mg/kg administered 10 min after administration of antagonist.
In this study four groups of mice were subjected to CHI (n=7-8/group), after which the following agents were administered: • Group 1 (Control): Vehicle only (Dimethyl Sulfoxide (DMSO): Tween 80: Saline at ratio of 1:1:18), i.p. 1 h after CHI. • Group 2: HU-910, 10 mg/kg, dissolved in Vehicle, i.p. 1 h after CHI. • Group 3: Specific CB2 antagonist/inverse agonist AM630 (6-Iodo-2-methyl-1-[2-(4-morpholinyl)ethyl]-1H-indol-3-yl](4-methoxyphenyl)methanone) (Ross et al. 1999)), dissolved in Vehicle, 1 mg/kg, i.p. 1 h after CHI and HU-910, dissolved in Vehicle, 10 mg/kg administered 10 min after administration of antagonist/inverse agonist. • Group 4: Specific CB2 antagonist/inverse agonist AM630 (6-Iodo-2-methyl-1-[2-(4-morpholinyl)ethyl]-1H-indol-3-yl](4-methoxyphenyl)methanone), dissolved in Vehicle, 1 mg/kg, i.p. 1 h after CHI

SMILES	EC50 [1] [nM]	Emax ([1]; read-out: [35S]GTPγS Emax) [%]	beneficial effect on ΔNSS in the presence of AM630 ([2]; AM630 1 mg/kg i.p. 1 h after CHI, HU-910 10 mg/kg 10 min later, 1 h to 28 days)	extent of recovery ΔNSS=NSS(1 h)−NSS(t) ([2]; HU-910 10 mg/kg i.p. 1 h after CHI, days 5 and 7 post injury, vs vehicle or 0.1 and 1 mg/kg)	beneficial effect on ΔNSS in the presence of SR144528 ([2]; SR144528 1 mg/kg i.p. 1 h after CHI, HU-910 10 mg/kg 10 min later)	most effective dose (recovery, ΔNSS) [2] [mg/kg]	recovery, Neurological Severity Score (ΔNSS) ([2]; HU-914 5 mg/kg i.p. 1 h after CHI, starting at 3 days post injury, vs vehicle or 10 and 20 mg/kg)	recovery ΔNSS in the presence of SR144528 ([2]; SR144528 1 mg/kg i.p. 1 h after CHI, HU-914 5 mg/kg 10 min later, 24 h to 28 day)
CCCCCCC(C)(C)c1cc(OC)c(C2=C[C@H]3CC[C@]2(CO)C3(C)C)c(OC)c1 [HU-910, (1S,4R)-(2-(2,6-dimethoxy-4-(2-methyloctan-2-yl)phenyl)-7,7-dimethylbicyclo[2.2.1]hept-2-en-1-yl)methanol]	26.4	121 ± 7	reduced to a similar extent	significant greater recovery	reduced to a similar extent	10		
CCCCCCC(C)(C)c1cc(OC)c(C2=C[C@H]3CC[C@]2(C(=O)O)C3(C)C)c(OC)c1 [HU-914, (1S,4R)-2-(2,6-dimethoxy-4-(2-methyloctan-2-yl)phenyl)-7,7-dimethylbicyclo[2.2.1]hept-2-ene-1-carboxylic acid]						5	significant greater recovery	abolished and reduced to a similar extent as in the control group
